Each structure is given as a SMILES string. Like-named read-outs stand apart in the source and are kept apart here.

For assay [1], the system named is Abeta and Tau aggregates in AD tissue. In words: Classical autoradiography on Abeta- and Tau-rich AD brain tissue sections. The assay is classed as binding, human. The conditions noted are these: tritiated compound 10 nM; alone or in self-competition. How it is done: All tissues were collected from donors for or from whom a written informed consent for a brain autopsy and the use of the material and clinical information for research purposes had been obtained by the respective brain banks. All samples were anonymized and coded. Frozen brain tissue blocks with confirmed Abeta and Tau pathology upon autopsy were processed using a cryotome to generate sections of 10 μm in thickness and mounted on glass slides. Sections were kept at −80° C. until use.
Brain sections were fixed for 15 minutes at 4° C. with 4% formaldehyde on ice and washed three times for eight minutes with 1×PBS at RT. Sections were blocked in assay buffer for 30 minutes (50 mM Tris-HCl, 0.9% NaCl+0.1% BSA). Cold test compound (Compound 1) was diluted in assay buffer to 4 μM and applied on half of the sections for 40 minutes at RT to determine non-specific binding. The remaining half of the sections were only incubated with assay buffer (total binding). […]
(§1) Sections were subsequently dried under a stream of air and mounted with a copper-based adhesive strip. Bound radioactivity was quantified by exposing the slides in a real-time autoradiography system (Beaquant™ AI4R) for 2 hours with measurement settings configured for tritium. Beavacq software (AI4R) was used to acquire the image which was subsequently quantified using Beamage image analysis software (AI4R).

In the next assay the target is T1, Abeta (Homo sapiens, UniProt P05067).
T1 construct: an AD donor with confirmed burden of Tau and Abeta aggregates; from tissue; host or cells: frontal cortex of a human AD donor, Triton/sucrose-insoluble fraction
T1 sequence (P05067 672-713 limits assumed): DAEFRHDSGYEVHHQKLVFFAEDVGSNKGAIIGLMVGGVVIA
As to the kind of experiment: Radiobinding competition assay using Abeta reference compound on AD insoluble fraction of brain homogenates. It counts as binding. The conditions noted are these: against [3H]Abeta reference compound. How it is done: Approximately 4 g of frozen tissue block from frontal cortex brain region was used from an AD donor with confirmed burden of Tau and Abeta aggregates. The tissue was homogenized in three volumes (1:3 w/v) of high salt buffer (50 mM Tris-HCl pH 7.5, 750 mM NaCl, 5 mM EDTA) supplemented with protease inhibitors (Complete; Roche 11697498001) at 4° C. with a glass Dounce homogenizer. The homogenate was transferred into polycarbonate centrifuge bottles (16×76 mm; Beckman 355603) and centrifuged at 100,000×g (38,000 RPM) in an ultracentrifuge (Beckman, XL100K) for 60 minutes at 4° C. using a pre-cooled 70.1 rotor (Beckman, 342184). Pellets were resuspended in high salt buffer supplemented with 1% Triton X-100 and homogenized at 4° C. with a syringe. The homogenates were centrifuged again at 100,000×g (38,000 RPM, 70.1 rotor) for 60 minutes at 4° C. Pellets were resuspended in high salt buffer supplemented with 1% Triton X-100 and 1 M sucrose and homogenized at 4° C. with a syringe. The homogenates were centrifuged at 100,000×g (38,000 RPM, 70.1 rotor) for 60 minutes at 4° C. The resulting pellets containing insoluble fraction were resuspended in PBS (1:2 w/v relative to starting tissue weight), aliquoted and stored at −80° C. until use.
The reaction was performed in assay buffer (50 mM Tris pH 7.5 in 0.9% NaCl, 0.1% BSA) and incubated for two hours at room temperature (RT). Samples in duplicate were then filtered under vacuum in GF/C filter plates (PerkinElmer) to trap the aggregates with the bound radioligand and washed with 100 μL ice-cold 50 mM Tris pH 7.5. The GF/C filters were then dried and scintillation liquid (UltimateGold, PerkinElmer, 6013151) was added in each well. The filters were analyzed on a Microbeta2 scintillation counter (PerkinElmer). Values for the maximal signal were obtained in the absence of non-radiolabeled compound, while 100% displacement was obtained using 1 μM of non-radiolabeled reference compound. Ki values were calculated by nonlinear regression, using a one site—fit Ki model in Prism V7 (GraphPad).

In another assay the target is TDP-43 aggregates (Homo sapiens, UniProt Q13148). As to the kind of experiment: Classical autoradiography in brain sections from patients with FTD. The assay is classed as binding. To be noted: for Displacement on FTLD-TDP type A and B compared to non-demented control / Specific binding in FTLD-TDP type A compared to control: classical autoradiography; for cARG displacement on FTLD-TDP Type A case / cARG displacement on FTLD-TDP Type B case / cARG displacement on non-demented control: total binding divided by non-specific binding, grey matter, self-block with cold compound; for Specific binding in FTLD-TDP type A compared to control: one-way ANOVA with Tukey's correction. How it is done: All tissues were collected from donors for or from whom a written informed consent for a brain autopsy and the use of the material and clinical information for research purposes had been obtained by the respective brain banks. All samples were anonymized and coded. Frozen brain tissue blocks with confirmed TDP-43 pathology upon autopsy were processed using a cryotome to generate sections of 10 μm in thickness and mounted on glass slides. Sections were kept at −80° C. until use.
Sequence of TDP-43 aggregates (Q13148 whole entry): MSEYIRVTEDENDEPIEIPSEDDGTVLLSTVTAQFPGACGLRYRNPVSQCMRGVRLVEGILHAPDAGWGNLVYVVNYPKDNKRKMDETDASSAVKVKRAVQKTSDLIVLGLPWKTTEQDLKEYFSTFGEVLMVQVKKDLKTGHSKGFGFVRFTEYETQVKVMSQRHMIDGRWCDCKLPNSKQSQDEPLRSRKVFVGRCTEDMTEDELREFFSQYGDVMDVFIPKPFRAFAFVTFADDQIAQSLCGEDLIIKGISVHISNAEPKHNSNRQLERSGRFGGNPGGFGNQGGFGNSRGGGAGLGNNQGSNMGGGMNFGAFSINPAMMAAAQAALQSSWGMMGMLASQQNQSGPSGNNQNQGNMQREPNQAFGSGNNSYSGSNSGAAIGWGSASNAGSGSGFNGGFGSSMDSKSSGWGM
Brain sections were fixed for 15 minutes at 4° C. with 4% formaldehyde on ice and washed three times for eight minutes with 1×PBS at RT. Sections were blocked in assay buffer for 30 minutes (50 mM Tris-HCl, 0.9% NaCl+0.1% BSA). Cold test compound (Compound 1, Compound 8 or Compound 17) was diluted in assay buffer to 4 μM and applied on half of the sections for 40 minutes at RT to determine non-specific binding. The remaining half of the sections were only incubated with assay buffer (total binding). Following this incubation, an equal volume of the corresponding tritiated compound (i.e. [^3H]-Compound 1, [^3H]-Compound 8 or [^3H]-Compound 17, respectively), diluted to 20 nM (for [^3H]-Compound 1 and [^3H]-Compound 8) or 10 nM ([^3H]-Compound 17) or increasing concentration from 0.1 to 200 nM (for [^3H]-Compound 1 and [^3H]-Compound 17), was added on sections and incubated for 2 hours at RT and then washed as follows: once in ice-cold 50 mM Tris-HCl pH 7.4 buffer for one minute, twice in ice-cold PBS for one minute, once in ice-cold 50 mM Tris-HCl pH 7.4 buffer for one minute and finally rinsed briefly in ice-cold distilled water.
as §1, with “hours,” for “hours”, “(AI4R). Specific binding (non-specific binding subtracted from total) and displacement (total binding divided by non-specific) were calculated. Bar graphs were generated using GraphPad Prism. For Kd determination on brain sections, the specific binding data were fitted with a non-linear regression analysis using a one-site specific binding model in GraphPad Prism.” for “(AI4R).”

Setting [2] is: cells printed in μM, read-out: Ki on AD brain homogenates.

What is called Ki is a dissociation constant, usually derived from enzyme kinetics or from competition with a known ligand. Take `O=C1c2sc(-c3ccc(N4CC[C@@H](F)C4)nc3F)nc2CCN1c1cccnc1` [Compound 1, 2-[2-fluoro-6-[(3R)-3-fluoropyrrolidin-1-yl]-3-pyridyl]-5-(3-pyridyl)-6,7-dihydrothiazolo[5,4-c]pyridin-4-one]: the “Classical autoradiography signal on AD tissue with abundant Abeta and Tau pathology” value in assay [1] is on record as “no signal on the tissue”. For the same compound, the Ki on Abeta (setting [2]) is > 1 µM. At Abeta (read-out: Ki (nM) on AD brain homogenates), the Ki is > 1 µM. Further, at TDP-43 aggregates, the “Displacement on FTLD-TDP type A and B compared to non-demented control” value was “increased displacement”; the “cARG displacement on FTLD-TDP Type A case” value turned out to be 3.3; the “cARG displacement on FTLD-TDP Type B case” value came out at 3.2; the “cARG displacement on non-demented control” value turned out to be 1.9.
As to `O=C1c2sc(-c3ccc(N4CCC(CO)CC4)nc3F)nc2CCN1c1cccnc1` [Compound 17, 2-(2-fluoro-6-(4-(hydroxymethyl)piperidin-1-yl)pyridin-3-yl)-5-(pyridin-3-yl)-6,7-dihydrothiazolo[5,4-c]pyridin-4(5H)-one], in assay [1], the “Classical autoradiography signal on AD tissue with abundant Abeta and Tau pathology” value is “no signal on the tissue”. Moreover, on Abeta (setting [2]), the Ki is > 1 µM. Besides, on TDP-43 aggregates, the “Displacement on FTLD-TDP type A and B compared to non-demented control” value is listed as “increased displacement”; the “cARG displacement on FTLD-TDP Type A case” value was 2.9; the “cARG displacement on FTLD-TDP Type B case” value is given as 2.6; the “cARG displacement on non-demented control” value was 1.7.
For the compound `[3H]c1cncc(N2CCc3nc(-c4cc([3H])c(N5CC[C@@H](F)C5)nc4F)sc3C2=O)c1` [[^3H]-Compound 1, tritiated 2-[2-fluoro-6-[(3R)-3-fluoropyrrolidin-1-yl]-3-pyridyl]-5-(3-pyridyl)-6,7-dihydrothiazolo[5,4-c]pyridin-4-one], the “Specific binding in FTLD-TDP type A compared to control” value on TDP-43 aggregates was “significantly higher specific binding”.
Turning to `[3H]C([3H])(O)C1CCN(c2ccc(-c3nc4c(s3)C(=O)N(c3cccnc3)CC4)c(F)n2)CC1` [[^3H]-Compound 17, 2-(2-fluoro-6-(4-(hydroxymethyl-t2)piperidin-1-yl)pyridin-3-yl)-5-(pyridin-3-yl)-6,7-dihydrothiazolo[5,4-c]pyridin-4(5H)-one], the “Specific binding in FTLD-TDP type A compared to control” value on TDP-43 aggregates is listed as “significantly higher specific binding”.

Source of the values: patent US20260103474A1, “NOVEL COMPOUNDS FOR THE DIAGNOSIS OF TDP-43 PROTEINOPATHIES” (AC IMMUNE SA, priority 2022, published 2026).
